Data as given in patent US7273880B2, “Selective NPY (Y5) antagonists” (H. Lunbeck A/S, priority 1999, dated 2007).
Counter-ions that a name gives are not always drawn.

System: not given
Test: not given
Settings: not given

Row | Compound | melting point [°C]
1 | COc1cccc2c1OCCc1sc(NC[C@H]3CC[C@H](NS(C)(=O)=O)CC3)nc1-2 (as salt: hydrochloride) [Example 65, trans-N2-(4-Methylsulfonylamino)cyclohexylmethyl-7-methoxy-4,5-dihydro-benzo[2,3]oxepino[4,5-d][1,3]-thiazol-2-amine hydrochloride] | 225 to 230

Biological target: T1, human Y5 receptor (hNPY-5) (Homo sapiens, UniProt Q15761)
T1 construct: expressed in transfected cells; host or cells: mouse fibroblast LM(tk-) cells, e.g. L-hY5-7 (ATCC CRL-11995)
T1 sequence (Q15761 1-445): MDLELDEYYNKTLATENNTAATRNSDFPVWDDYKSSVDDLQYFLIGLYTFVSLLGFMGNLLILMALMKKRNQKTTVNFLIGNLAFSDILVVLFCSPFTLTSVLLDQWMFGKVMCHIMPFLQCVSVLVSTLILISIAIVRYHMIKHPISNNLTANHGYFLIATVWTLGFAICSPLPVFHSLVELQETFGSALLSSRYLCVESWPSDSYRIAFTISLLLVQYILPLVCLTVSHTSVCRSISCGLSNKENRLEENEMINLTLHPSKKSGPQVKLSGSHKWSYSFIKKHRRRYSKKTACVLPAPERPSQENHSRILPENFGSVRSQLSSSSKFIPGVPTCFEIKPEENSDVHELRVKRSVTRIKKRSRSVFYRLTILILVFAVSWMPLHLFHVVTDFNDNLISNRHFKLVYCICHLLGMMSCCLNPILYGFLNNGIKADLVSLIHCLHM
Test: Radioligand binding to membranes, cloned human Y5 receptor
Settings: cloned human NPY Y5 receptor, radioligand competition binding; Tables 1-3; read-out: Ki, nM hNPY-5
Method: Binding of the compounds of the present invention to human Y1, Y2, Y4, and Y5 receptors was evaluated using stably transfected 293 or LM(tk-) cells as described above. Stably transfected cell lines which may be used for binding assays include, for example, for the human Y1 receptor, 293-hY1-5 (deposited Jun. 4, 1996, under ATCC Accession No. CRL-12121), for the human Y2 receptor, 293-hY2-10 (deposited Jan. 27, 1994, under ATCC Accession No. CRL-11537), for the human Y4 receptor, L-hY4-3 (deposited Jan. 11, 1995, under ATCC Accession No. CRL-11779), and for human Y5 receptor, L-hY5-7 (deposited Nov. 15, 1995, under ATCC Accession No. CRL-11995). These cell lines were deposited with the American Type Culture Collection (ATCC), 10801 University Blvd., Manassas, Va. 20110-2209, U.S.A. under the provisions of the Budapest Treaty for the International Recognition of the Deposit of Microorganisms for the Purposes of Patent Procedure.
Membranes were harvested from COS-7 cells 48 hours after transient transfection. Adherent cells were washed twice in ice-cold phosphate buffered saline (138 mM NaCl, 8.1 mM Na2HPO4, 2.5 mM KCl, 1.2 mM KH2PO4, 0.9 mM CaCl2, 0.5 mM MgCl2, pH 7.4) and lysed by sonication in ice-cold sonication buffer (20 mM Tris-HCl, 5 mM EDTA, pH 7.7). Large particles and debris were cleared by low speed centrifugation (200×g, 5 min, 4° C.). Membranes were collected from the supernatant fraction by centrifugation (32,000×g, 18 min, 4° C.), washed with ice-cold hypotonic buffer, and collected again by centrifugation (32,000×g, 18 min, 4° C.). The final membrane pellet was resuspended by sonication into a small volume of ice-cold binding buffer (˜1 ml for every 5 plates: 10 mM NaCl, 20 mM HEPES, 0.22 mM KH2PO4, 1.26 mM CaCl2, 0.81 mM MgSO4, pH 7.4). Protein concentration was measured by the Bradford method (Bradford, 1976) using Bio-Rad Reagent, with bovine serum albumin as a standard. Membranes were held on ice for up to one hour and used fresh, or flash-frozen and stored in liquid nitrogen.
Membranes were prepared similarly from 293, LM(tk-), and NIH-3T3 cells. To prepare membranes from baculovirus infected cells, 2×10^7 Sf21 cells were grown in 150 mm tissue culture dishes and infected with a high-titer stock of hY5BB3. Cells were incubated for 2-4 days at 27° C., no CO2 before harvesting and membrane preparation as described above.
Membrane suspensions were diluted in binding buffer supplemented with 0.1% bovine serum albumin to yield an optimal membrane protein concentration so that ^125I-PYY (or alternative radioligand such as ^125I-NPY, ^125I-PYY3-36, or ^125I-[Leu^31Pro^34]PYY) bound by membranes in the assay was less than 10% of ^125I-PYY (or alternative radioligand) delivered to the sample (100,000 dpm/sample=0.08 nM for competition binding assays). ^125I-PYY (or alternative radioligand) and peptide competitors were also diluted to desired concentrations in supplemented binding buffer. Individual samples were then prepared in 96-well polypropylene microtiter plates by mixing 125I-PYY (25 μL) (or alternative radioligand), competing peptides or supplemented binding buffer (25 μL), and finally, membrane suspensions (200 μL). Samples were incubated in a 30° C. water bath with constant shaking for 120 min. Incubations were terminated by filtration over Whatman GF/C filters (pre-coated with 1% polyethyleneimine and air-dried before use), followed by washing with 5 mL of ice-cold binding buffer. Filter-trapped membranes were impregnated with MeltiLex solid scintillant (Wallac, Turku, Finland) and counted for ^125I in a Wallac Beta-Plate Reader. Alternatively, incubations were carried out in GF/C filter plates (pre-coated with 1% polyethyleneimine and air-dried before use), followed by vacuum filtration and three washes of 300 μL of ice-cold binding buffer. 50 μL of UltimaGold (Packard) scintillant were added and counted for ^125I in a Wallac MicroBeta Trilux. […]

Row | Compound | Ki [nM]
2 | CCC(=O)NC[C@H]1CC[C@H](Nc2nc3c(s2)CCCc2ccc(F)cc2-3)CC1 [Example 75, trans-1-Aza-4,5-dihydro-2-(4-ethylcarbonylamino-methyl)-cyclohexylamino-9-fluoro-3-thia-benzo[e]-azulene] | 36
3 | COc1ccc2c(c1)-c1nc(NC[C@H]3CC[C@H](NS(C)(=O)=O)CC3)sc1CCO2 [Example 63, trans-1-Aza-4,5-dihydro-9-methoxy-2-{4-methylsulfonyl-amino}cyclohexylmethylamino-6-oxa-3-thia-benzo[e]azulene] | 31
4 | COc1ccc2c(c1)CCCc1sc(N[C@H]3CC[C@H](CNS(=O)(=O)C(C)C)CC3)nc1-2 [Example 73, trans-1-Aza-4,5-dihydro-2-(4-isopropylsulfonyl-aminomethyl)-cyclohexylamino-8-methoxy-3-thia-benzo[e]-azulene] | 8.7
5 | CCS(=O)(=O)N[C@H]1CC[C@H](CNc2nc3c(s2)CCCc2ccc(F)cc2-3)CC1 [Example 52, trans-N2-(4-Ethylsulfonylamino)cyclohexylmethyl-9-fluoro-5,6-dihydro-4H-benzo[6,7]cyclohepta[d][1,3]-thiazol-2-amine] | 1.7
6 | CCN(CC)S(=O)(=O)NCCCCCCNc1nc2c(s1)CCSc1ccccc1-2 [Example 101, N′-[6-(4,5-Dihydrobenzo[2,3]thiepino[4,5-d][1,3]thiazol-2-ylamino)hexyl]-N,N-diethylsulfamide] | 5.9
7 | COP(=O)(N[C@H]1CC[C@H](CNc2nc3c(s2)CCCc2ccc(F)cc2-3)CC1)OC [Example 67, trans-N2-(4-Dimethylphosphonylamino)cyclohexylmethyl-9-fluoro-5,6-dihydro-4H-benzo[6,7]cyclohepta[d][1,3]-thiazol-2-amine] | 5.5
8 | CN(C)S(=O)(=O)NCCCCNc1nc2c(s1)CCCc1ccc(F)cc1-2 [Example 6, 1-Aza-9-fluoro-4,5-dihydro-2-(4-(dimethyl-aminosulfonyl-amino)butyl)amino-3-thia-benzo[e]-azulene] | 3.1
9 | CC(C)S(=O)(=O)NCCOCCNc1nc2c(s1)CCCc1ccc(F)cc1-2 [Example 69, 1-Aza-9-fluoro-4,5-dihydro-2-(2-(2-isopropyl-sulfonylamino)-ethoxy)ethylamino-3-thia-benzo[e]-azulene] | 4.1
10 | CC(C)S(=O)(=O)N[C@H]1CC[C@H](CNc2nc3c(s2)CCCc2ccc(F)cc2-3)CC1 [Example 53, trans-1-Aza-9-fluoro-4,5-dihydro-2-{4-isopropyl-sulfonylamino}cyclohexylmethylamino-3-thia-benzo[e]-azulene] | 3.2
11 | COc1cccc(-c2csc(N[C@H]3CC[C@H](CNS(C)(=O)=O)CC3)n2)c1 [Example 93, trans-4-(3-Methoxy)phenyl-2-(4-methylsulfonylamino-methyl)-cyclohexylaminothiazole] | 150
12 | COCC(=O)NCc1ccc(Nc2nc3c(s2)CCCc2ccc(F)cc2-3)cc1 [Example 89, N1-{4-[(9-fluoro-5,6-dihydro-4H-benzo[6,7]cyclohepta-[d][1,3]thiazol-2-yl)amino]benzyl}-2-methoxyacetamide] | 9.2
13 | COc1cccc2c1OCCc1sc(N[C@H]3CC[C@H](CNS(C)(=O)=O)CC3)nc1-2 [Example 74, trans-1-Aza-4,5-dihydro-2-(4-methylsulfonylamino-methyl)-cyclohexylamino-7-methoxy-3-thia-benzo[e]-azulene] | 37
14 | COc1ccc2c(c1)CCCc1sc(NC[C@H]3CC[C@H](NS(C)(=O)=O)CC3)nc1-2 [Example 71, trans-1-Aza-4,5-dihydro-8-methoxy-2-(4-methylsulfonyl-amino)cyclohexylmethylamino-3-thia-benzo[e]azulene] | 2.5
15 | CC(C)N(C=O)C[C@H]1CC[C@H](Nc2nc3c(s2)CCCc2ccc(F)cc2-3)CC1 [Example 83, trans-1-Aza-9-fluoro-4,5-dihydro-2-(4-(N-isopropyl-formamido)methyl)cyclohexylamino-3-thia-benzo[e]-azulene] | 12
16 | CC(C)S(=O)(=O)NCCCCCNc1nc2c(s1)CCCc1ccc(F)cc1-2 [Example 13, 1-Aza-9-fluoro-4,5-dihydro-2-(5-isopropyl-sulfonylamino)-pentylamino-3-thia-benzo[e]azulene] | 132
17 | COCCN(C=O)C[C@H]1CC[C@H](Nc2nc(-c3ccccc3OC)cs2)CC1 [Example 97] | 335
18 | COc1cccc2c1OCCc1sc(NC[C@H]3CC[C@H](NS(=O)(=O)N(C)C)CC3)nc1-2 [Example 66, trans-1-Aza-4,5-dihydro-7-methoxy-2-{4-dimethylamino-sulfonylamino}cyclohexylmethylamino-6-oxa-3-thia-benzo[e]azulene] | 2
19 | COc1cccc2c1OCCc1sc(NC[C@H]3CC[C@H](NS(C)(=O)=O)CC3)nc1-2 [Example 65, trans-N2-(4-Methylsulfonylamino)cyclohexylmethyl-7-methoxy-4,5-dihydro-benzo[2,3]oxepino[4,5-d][1,3]-thiazol-2-amine hydrochloride] | 11.6
20 | CN(C)S(=O)(=O)NCCCCCNc1nc2c(s1)CCCc1ccc(F)cc1-2 [Example 2, 1-Aza-9-fluoro-4,5-dihydro-2-{5-(dimethyl-aminosulfonyl-amino)pentyl}amino-3-thia-benzo[e]azulene] | 1.6
21 | CCCN(C=O)[C@H]1CC[C@H](CNc2nc3c(s2)CCOc2ccccc2-3)CC1 [Example 88, N-{4-[(4,5-Dihydrobenzo[2,3]oxepino[4,5-d][1,3]-thiazol-2-ylamino)methyl]cyclohexyl}-N-propyl-formamide] | 36
22 | O=S(=O)(NC[C@H]1CC[C@H](Nc2nc3c(s2)CCCc2ccc(F)cc2-3)CC1)C(F)(F)F [Example 41, trans-1-Aza-9-fluoro-2-{4-trifluoromethylsulfonyl-aminomethyl}cyclohexylamino-4,5-dihydro-3-thiabenzo[e]-azulene] | 30
23 | CC(=O)NC[C@H]1CC[C@H](Nc2nc3c(s2)CCCc2ccc(F)cc2-3)CC1 [Example 81, N1-({4-[(9-fluoro-5,6-dihydro-4H-benzo[6,7]-cyclohepta-[d][1,3]thiazol-2-yl)amino]cyclohexyl}-methyl)acetamide] | 62
